# According to patent US6855726B1, “Quinolones as serine protease inhibitors” (Warner-Lambert Company LLC, priority 1998, dated 2005):
# B1: Antistasin: a potent inhibitor of blood coagulation factor Xa, from the Mexican leech Haementeria officinalis (protein, UniProt P15358 18-136, looked up)
# Antistasin: QGPFGPGCEEAGCPEGSACNIITDRCTCSGVRCRMHCPHGFQRSRYGCEFCKCRLEPMKATCDISECPEGMMCSRLTNKCDCKIDINCRKTCPNGLKRDKLGCEYCECRPKRKLIPRLS
# Columns and labels:
# [1] = rat arteriovenous shunt and venous stasis models; Wong et al. 1996; cited from earlier work
# human thrombin = target: T1, human thrombin (Homo sapiens, UniProt P00734); assay: Determination of thrombin IC50 (chromogenic substrate Chromozym TH); assay type: biochemical
# T1 construct: purchased Enzyme Research Laboratories
# Procedure: The ability of compounds to act as inhibitors of human thrombin catalytic activity is assessed by determination of that concentration of test substance that inhibits by 50% (IC50) the ability of human thrombin to cleave the chromogenic substrate Chromozym TH (Tosyl-Gly-Pro-Arg-pNA*Ac, Boehringer Mannheim). Typically, 145 μL human thrombin (0.75 nM, Enzyme Research Laboratories) in a HPB buffer (10 mM HEPES, 100 mM NaCl, 0.05% BSA, 0.1% PEG-8000, pH 7.4) and 5 μL of test substance in DMSO (2% final) are incubated for 60 minutes at room temperature. Following preheating to 37° C. for 5 minutes, to this mixture is added 100 μL of Chromozym TH in HPB buffer. The velocity of Chromozym TH hydrolysis is determined at 37° C. by measuring the initial rate of change of the optical density at OD405 nm every 10 seconds for 5 minutes using a ThermoMax® Kinetic Microplate Reader.
# human trypsin = human trypsin (Homo sapiens, UniProt P07477); assay: Determination of trypsin IC50 (chromogenic substrate S2222); assay type: biochemical
# Procedure: The ability of compounds to act as inhibitors of human trypsin catalytic activity is assessed by determination of that concentration of test substance that inhibits by 50% (IC50) the ability of human trypsin to cleave the chromogenic substrate S2222 (N-Bz-L-Ile-L-Glu-L-Gly-L-Arg-p-nitroanilide. HCl, DiaPharma). Typically, 145 μL human trypsin (0.5 nM final) in 10 mM HEPES, 150 mM NaCl, 0.1% BSA, and 5 μL of the test substance in DMSO (2% final) are incubated for 60 minutes at room temperature. Following preheating to 37° C. for 5 minutes, to this mixture is added 100 μL of S2222 in HBSA buffer (100 μM final), and the velocity of S2222 hydrolysis is determined at 37° C. by measuring the optical density at OD405 nm every 10 seconds over 5 minutes using a ThermoMax® Kinetic Microplate Reader.
# human factor Xa = target: T2, human factor Xa (Homo sapiens, UniProt P00742); assay: Determination of factor Xa IC50 (chromogenic substrate S2765); assay type: biochemical
# T2 construct: human factor Xa (1 nM final, Enzyme Research Laboratories); purchased Enzyme Research Laboratories
# Procedure: The ability of compounds to act as inhibitors of human factor Xa catalytic activity is assessed by determination of that concentration of test substance that inhibits by 50% (IC50) the ability of human factor Xa to cleave the chromogenic substrate S2765 (N-CBz-D-Arg-L-Gly-L-Arg-p-nitroanilide. 2HCl, DiaPharma). Typically, 145 μL human factor Xa (1 nM final, Enzyme Research Laboratories) in 10 mM HEPES, 150 mM NaCl, 0.1% BSA, pH 7.4 (HBSA buffer) and 5 μL of test substance in DMSO (2% final) are incubated for 60 minutes at room temperature. Following preheating to 37° C. for 5 minutes, to this mixture is added […] of S2765 in HBSA buffer. The velocity of S2765 hydrolysis is determined at 37° C. by measuring the initial rate of change of the optical density at OD405 nm every 10 seconds for 5 minutes using a ThermoMax®D Kinetic Microplate Reader.
# [2] = canine coronary artery, electrolytic lesion model; Lynch et al., Schaffer et al.; cited from earlier work
# [3] = rabbit venous thrombosis; Fioravanti et al. 1993; cited from earlier work
# [4] = dog, adjunct to recombinant tissue plasminogen activator; Mellott et al. 1993; cited from earlier work
# [5] = various models of arterial and venous thrombosis; Lapatto et al. 1997; cited from earlier work
# T2 sequence (P00742 235-488 limits assumed): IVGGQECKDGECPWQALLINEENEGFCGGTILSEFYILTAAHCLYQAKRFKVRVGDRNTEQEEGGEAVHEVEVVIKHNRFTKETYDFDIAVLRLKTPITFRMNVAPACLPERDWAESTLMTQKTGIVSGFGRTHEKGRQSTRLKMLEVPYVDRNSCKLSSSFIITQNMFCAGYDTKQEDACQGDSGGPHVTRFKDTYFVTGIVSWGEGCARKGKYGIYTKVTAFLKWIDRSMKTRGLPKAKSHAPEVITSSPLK
# T2 sequence (P00742 41-179 partner limits assumed): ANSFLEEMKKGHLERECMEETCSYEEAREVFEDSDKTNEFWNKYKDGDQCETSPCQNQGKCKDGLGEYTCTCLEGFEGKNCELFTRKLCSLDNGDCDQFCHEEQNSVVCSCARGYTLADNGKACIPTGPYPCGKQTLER
molecule,measurement,setting,value
CC(=N)N1CC[C@H](Oc2ccc([C@H](Cc3ccc4ccc(C(=N)N)cc4c3)C(=O)O)cc2)C1 [DX9065a],inhibition of thrombus formation,[1],inhibition of thrombus formation was achieved at doses that had little effect on APTT
"C[C@@H]1CCC[C@H](C)N1CCCCCN1C(=O)C(c2cc(C(=N)N)ccc2O)Cc2ccccc21 (stereo partly drawn) [Example 2, 3-(1-5-[(2R,6S)-2,6-dimethyltetrahydro-1(2H)-pyridinyl]pentyl-2-oxo-1,2,3,4-tetrahydro-3-quinolinyl)-4-hydroxybenzenecarboximidamide]",IC50,human thrombin,1140 nM
same,IC50,human trypsin,562 nM
same,IC50,human factor Xa,20 nM
"rTAP: recombinant tick anticoagulant peptide, a protein or polypeptide factor Xa inhibitor (YNRLCIKPRDWIDECDSNEGGERAYFRNGKGGCDSFWICPEDHTGADYYSSYRDCFNACI; UniProt P17726 1-60, looked up)",thrombus mass and time to occlusion,[2],reduce thrombus mass and time to occlusion
same,fibrin deposition,[3],reduce fibrin deposition
same,clot lysis and acute reocclusion,[4],accelerate the recombinant tissue plasminogen activator mediated clot lysis and prevent acute reocclusion
B1,antithrombotic activity,[5],displays antithrombotic activity
